± gives the uncertainty stated by the source.
Test: xn = mol fraction of the nth substance listed

CC#N + CCCC[P+](CCCC)(CCCC)CCCC.F[B-](F)(F)F
100 kPa, x2 = 0
Conditions | viscosity [mPa·s]
293.15 K | 0.354 ± 0.021
298.15 K | 0.338 ± 0.02
303.15 K | 0.324 ± 0.02
308.15 K | 0.31 ± 0.019
313.15 K | 0.298 ± 0.018
318.15 K | 0.286 ± 0.017

CCCCCC(=O)O + CCCC[P+](CCCC)(CCCC)CCCC.[Br-]
Conditions | viscosity [mPa·s]
298 K, 100 kPa, x2 = 0.5 | 290

CCCC[N+]1(C)CCCC1.F[P-](F)(F)(F)(F)F + CCCC[n+]1cccc(C)c1.F[P-](F)(F)(F)(F)F
101.3 kPa
Conditions | viscosity [mPa·s]
308.15 K, x2 = 0.4 | 535 ± 19
313.15 K, x2 = 0.4 | 390 ± 13
318.15 K, x2 = 0.4 | 290 ± 9
318.15 K, x2 = 0.5 | 262 ± 8
328.15 K, x2 = 0.4 | 170 ± 4
328.15 K, x2 = 0.7 | 123 ± 3
328.15 K, x2 = 0.9 | 102 ± 2
333.15 K, x2 = 0.6 | 108 ± 3
338.15 K, x2 = 0.5 | 96 ± 2
343.15 K, x2 = 0.2 | 110 ± 3
343.15 K, x2 = 0.4 | 86 ± 2
343.15 K, x2 = 0.6 | 70 ± 2
348.15 K, x2 = 0.6 | 57 ± 1
353.15 K, x2 = 0.4 | 58 ± 1
358.15 K, x2 = 0.2 | 61 ± 1
358.15 K, x2 = 0.4 | 48 ± 1
363.15 K, x2 = 0.5 | 37 ± 1
363.15 K, x2 = 0.6 | 34 ± 1

CCCC[n+]1ccccc1.O=S(=O)([N-]S(=O)(=O)C(F)(F)F)C(F)(F)F + CCCC[n+]1ccccc1.F[B-](F)(F)F
101 kPa
Conditions | viscosity [mPa·s]
303.15 K, x1 = 0.2162 | 91.2 ± 2.7
303.15 K, x1 = 0.7643 | 58.2 ± 1.3
313.15 K, x1 = 0.4327 | 48.4 ± 1.1
313.15 K, x1 = 0.5429 | 46.2 ± 1.1
313.15 K, x1 = 0.6523 | 42.5 ± 1
313.15 K, x1 = 0.8822 | 36.3 ± 0.9
323.15 K, x1 = 1 | 24.2 ± 0.6
333.15 K, x1 = 0.6523 | 21.8 ± 0.5
343.15 K, x1 = 0.1119 | 21.9 ± 0.5
343.15 K, x1 = 0.2162 | 19.9 ± 0.5
343.15 K, x1 = 0.8822 | 14.5 ± 0.3
353.15 K, x1 = 0.1119 | 16.5 ± 0.4
353.15 K, x1 = 0.4327 | 13.7 ± 0.3
353.15 K, x1 = 0.5429 | 13.2 ± 0.3
353.15 K, x1 = 1 | 10.9 ± 0.3

CCCC[n+]1ccccc1.[Cl-] + CCCC[n+]1ccccc1.[Br-]
101 kPa
Conditions | viscosity [mPa·s]
398.1 K, x1 = 0.084 | 33 ± 2.4
403.1 K, x1 = 0.084 | 27.4 ± 2.1
408.1 K, x1 = 0.389 | 23.9 ± 1.7
418.1 K, x1 = 0.169 | 16.9 ± 1.1
418.1 K, x1 = 0.389 | 17.4 ± 1.1
418.1 K, x1 = 0.689 | 18.6 ± 1.1
418.1 K, x1 = 0.892 | 19.4 ± 1.1
423.1 K, x1 = 0.084 | 14.37 ± 0.86
423.1 K, x1 = 0.892 | 16.89 ± 0.97
428.1 K, x1 = 0.785 | 14.42 ± 0.79
433.1 K, x1 = 0.292 | 11.45 ± 0.6
433.1 K, x1 = 0.892 | 13.16 ± 0.67
438.1 K, x1 = 0.169 | 10.08 ± 0.49
438.1 K, x1 = 0.469 | 10.85 ± 0.52
438.1 K, x1 = 0.892 | 11.77 ± 0.56

CC#N + CCCC[n+]1ccn(C)c1.F[B-](F)(F)F
Conditions | electrical conductivity, 298.15 K [S/m] | viscosity, 298.15 K [mPa·s] | viscosity, 333.15 K [mPa·s]
100 kPa, x2 = 0 | 0.0002 ± 0.0001 | 0.37 ± 0.0047 | –
101 kPa, x1 = 1 | – | – | 0.257 ± 0.004

CC(=O)c1ccccc1 + CCCC[n+]1ccn(C)c1.F[B-](F)(F)F
viscosity [mPa·s], 100 kPa
Conditions | 293.15 K | 303.15 K | 313.15 K | 323.15 K | 333.15 K
x1 = 0.0513 | 79 ± 16 | 50 ± 10 | 30.5 ± 6.1 | 20.4 ± 4.1 | 12.9 ± 2.6
x1 = 0.1001 | 56 ± 11 | 38.6 ± 7.7 | 21.6 ± 4.3 | 15.4 ± 3.1 | 11.5 ± 2.3
x1 = 0.2046 | 43.6 ± 8.7 | 30.8 ± 6.2 | 19 ± 3.8 | 13.7 ± 2.7 | 10.3 ± 2.1
x1 = 0.306 | 42.4 ± 8.5 | 28.6 ± 5.7 | 16.9 ± 3.4 | 12.2 ± 2.4 | 9.2 ± 1.8
x1 = 0.3976 | 41.7 ± 8.3 | 25.9 ± 5.2 | 11.8 ± 2.4 | 9.7 ± 1.9 | 6.7 ± 1.4
x1 = 0.5064 | 34.4 ± 6.9 | 21.3 ± 4.3 | 10.8 ± 2.2 | 7.6 ± 1.5 | 6.2 ± 1.2
x1 = 0.6079 | 29.5 ± 5.9 | 16.9 ± 3.4 | 9.8 ± 2 | 6.5 ± 1.3 | 5.7 ± 1.1
x1 = 0.7065 | 26 ± 5.2 | 13.7 ± 2.7 | 8.3 ± 1.7 | 5.4 ± 1.1 | –
x1 = 0.8054 | 22.3 ± 4.5 | 11.7 ± 2.3 | 7.1 ± 1.4 | 4.79 ± 0.96 | –
x1 = 0.9026 | 11.8 ± 2.4 | 8 ± 1.6 | 5.7 ± 1.1 | 3.81 ± 0.76 | 3.23 ± 0.65
x1 = 0.9516 | 7 ± 1.4 | 5 ± 1 | 3.65 ± 0.73 | 2.8 ± 0.56 | 2.22 ± 0.44
x1 = 1 | 1.91 ± 0.38 | 1.65 ± 0.33 | 1.37 ± 0.27 | 1.17 ± 0.23 | 1.02 ± 0.2

CCCC[n+]1ccn(C)c1.F[P-](F)(F)(F)(F)F + CCCC[n+]1ccn(C)c1.F[B-](F)(F)F
101 kPa
Conditions | viscosity [mPa·s]
298.15 K, x1 = 0.1034 | 116.1 ± 3.4
298.15 K, x1 = 0.833 | 227 ± 12
298.15 K, x1 = 0.8877 | 237 ± 13
299.15 K, x1 = 0.1034 | 110.2 ± 3.2
299.15 K, x1 = 0.2095 | 121.3 ± 3.9
299.15 K, x1 = 1 | 259 ± 15
301.15 K, x1 = 0.0568 | 91.6 ± 2.2
301.15 K, x1 = 0.1034 | 99.5 ± 2.6
301.15 K, x1 = 1 | 232 ± 12
302.15 K, x1 = 0.0568 | 87.1 ± 2
302.15 K, x1 = 0.3825 | 118.8 ± 3.7
302.15 K, x1 = 0.4647 | 124.4 ± 4.1
303.15 K, x1 = 0.0568 | 82.9 ± 1.8
305.15 K, x1 = 0.6928 | 136.5 ± 4.8
305.15 K, x1 = 0.945 | 166.1 ± 6.9
307.15 K, x1 = 0.3825 | 92.5 ± 2.2
307.15 K, x1 = 0.833 | 136.1 ± 4.9
307.15 K, x1 = 0.945 | 149.7 ± 5.7
308.15 K, x1 = 0.2095 | 77.4 ± 1.6
308.15 K, x1 = 0.3825 | 88.1 ± 2.1
308.15 K, x1 = 0.5385 | 98.8 ± 2.4
308.15 K, x1 = 1 | 156 ± 6.2

CN(C)C=O + CCCC[n+]1ccn(C)c1.F[B-](F)(F)F
Conditions | viscosity [mPa·s]
298.15 K, 101.33 kPa, x1 = 1 | 0.8 ± 0.16
333.15 K, 100 kPa, x2 = 0 | 0.559 ± 0.007

CN1CCCC1=O + CCCC[n+]1ccn(C)c1.F[B-](F)(F)F
101 kPa, x1 = 1
Conditions | viscosity [mPa·s]
298.15 K | 1.66 ± 0.21
303.15 K | 1.49 ± 0.19
308.15 K | 1.39 ± 0.18
313.15 K | 1.31 ± 0.17
323.15 K | 1.174 ± 0.015

CC(=O)c1ccccc1 + CCCC[n+]1ccn(C)c1.F[P-](F)(F)(F)(F)F
100 kPa
Conditions | viscosity [mPa·s]
293.15 K, x1 = 0.5999 | 49.3 ± 9.9
303.15 K, x1 = 0.2999 | 45 ± 9
313.15 K, x1 = 0.4973 | 21.6 ± 4.3
313.15 K, x1 = 0.5999 | 16.5 ± 3.3
323.15 K, x1 = 0.0913 | 30.2 ± 6
323.15 K, x1 = 0.3908 | 20.1 ± 4
323.15 K, x1 = 0.697 | 8 ± 1.6
323.15 K, x1 = 0.7999 | 6 ± 1.2
323.15 K, x1 = 0.95 | 1.89 ± 0.38
333.15 K, x1 = 0.0913 | 20.3 ± 4
333.15 K, x1 = 0.2999 | 17.7 ± 3.6
333.15 K, x1 = 0.9002 | 3.48 ± 0.7
333.15 K, x1 = 1 | 1.09 ± 0.22

Reference: the CheMixHub ionic liquid set
